Toxic doses and inconclusive results are not listed. Rule as the data show it: active = T/C of 150% or more; inactive = T/C below 125%.
Test system: L1210 leukemia ip in BDF1 mice, survival T/C
Assay: NCI In Vivo Anticancer Drug Screen. Data for tumor model L1210 Leukemia (intraperitoneal) in B6D2F1 (BDF1) mice
Settings: endpoint: mean survival time, higher = longer survival
Procedure, shortened: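 Antitumor effect is assessed in tumor-bearing animals. Survival in the compound arm is compared with a vehicle-dosed control arm and expressed as their quotient.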

[1] = dose: 100.0 mg/kg/injection, schedule: Q01DX009 (ip), vehicle: Klucel (hydroxypropylcellulose) (HPC)
[2] = dose: 200.0 mg/kg/injection, schedule: Q01DX009 (ip), vehicle: Klucel (hydroxypropylcellulose) (HPC)
[3] = dose: 100.0 mg/kg/injection, schedule: Q04DX003 (ip), vehicle: Klucel (hydroxypropylcellulose) (HPC)
[4] = dose: 200.0 mg/kg/injection, schedule: Q04DX003 (ip), vehicle: Klucel (hydroxypropylcellulose) (HPC)
[5] = dose: 400.0 mg/kg/injection, schedule: Q04DX003 (ip), vehicle: Klucel (hydroxypropylcellulose) (HPC)
[6] = dose: 100.0 mg/kg/injection, schedule: Q01DX001 (ip), vehicle: saline
[7] = dose: 200.0 mg/kg/injection, schedule: Q01DX001 (ip), vehicle: saline
[8] = dose: 100.0 mg/kg/injection, schedule: Q01DX009 (ip), vehicle: saline
[9] = dose: 100.0 mg/kg/injection, schedule: Q04DX003 (ip), vehicle: saline
[10] = dose: 200.0 mg/kg/injection, schedule: Q01DX009 (ip), vehicle: saline
[11] = dose: 200.0 mg/kg/injection, schedule: Q04DX003 (ip), vehicle: saline
[12] = dose: 400.0 mg/kg/injection, schedule: Q01DX009 (ip), vehicle: saline
[13] = dose: 400.0 mg/kg/injection, schedule: Q04DX003 (ip), vehicle: saline

Measured: T/C

O=C(C[N+]12CN3CN(CN(C3)C1)C2)c1ccc(Br)cc1
inactive: dose: 100.0 mg/kg/injection, schedule: Q01DX005 (ip), vehicle: Klucel (hydroxypropylcellulose) (HPC) 103 % of control | [1] 111 % of control | dose: 200.0 mg/kg/injection, schedule: Q01DX005 (ip), vehicle: Klucel (hydroxypropylcellulose) (HPC) 109 % of control | [2] 107 % of control | dose: 400.0 mg/kg/injection, schedule: Q01DX005 (ip), vehicle: Klucel (hydroxypropylcellulose) (HPC) 111 % of control

O=C(/C=N/O)/C=N/O (tested in a mixture with another compound)
inactive: dose: 6.25 mg/kg/injection, schedule: Q01DX009 (ip), vehicle: saline 97 % of control | dose: 12.5 mg/kg/injection, schedule: Q01DX009 (ip), vehicle: saline 96 % of control | dose: 12.5 mg/kg/injection, schedule: Q04DX003 (ip), vehicle: saline 96 % of control | dose: 25.0 mg/kg/injection, schedule: Q01DX009 (ip), vehicle: saline 96 % of control | dose: 25.0 mg/kg/injection, schedule: Q04DX003 (ip), vehicle: saline 104 % of control

CC(C)=CCNC(=O)NS(=O)(=O)c1ccc(Cl)cc1
inactive: [3] 103 % of control | [4] 103 % of control | [5] 100 % of control

CCCCOC(=O)c1ccc2c(ccc[n+]2C)c1
inactive: dose: 75.0 mg/kg/injection, schedule: Q01DX001 (ip), vehicle: saline 95 % of control | dose: 75.0 mg/kg/injection, schedule: Q04DX003 (ip), vehicle: saline 112 % of control | dose: 150.0 mg/kg/injection, schedule: Q01DX001 (ip), vehicle: saline 101 % of control | dose: 150.0 mg/kg/injection, schedule: Q04DX003 (ip), vehicle: saline 105 % of control | dose: 300.0 mg/kg/injection, schedule: Q01DX001 (ip), vehicle: saline 100 % of control | dose: 300.0 mg/kg/injection, schedule: Q04DX003 (ip), vehicle: saline 96 % of control

CCOC(=O)c1[nH]c(C)c(/C(=N/NC(N)=O)C(=O)OC)c1C
inactive: dose: 100.0 mg/kg/injection, schedule: Q01DX001 (ip), vehicle: Klucel (hydroxypropylcellulose) (HPC) 103 % of control | dose: 200.0 mg/kg/injection, schedule: Q01DX001 (ip), vehicle: Klucel (hydroxypropylcellulose) (HPC) 110 % of control | dose: 400.0 mg/kg/injection, schedule: Q01DX001 (ip), vehicle: Klucel (hydroxypropylcellulose) (HPC) 98 % of control

CC(=O)n1ccnc1/C=C\c1ccc([N+](=O)[O-])s1
inactive: [3] 103 % of control | [4] 101 % of control

Cn1c2c(c(=O)n(C)c1=O)C(=Nc1ccccc1)C(=O)N2
inactive: [6] 101 % of control | [7] 104 % of control | dose: 400.0 mg/kg/injection, schedule: Q01DX001 (ip), vehicle: saline 96 % of control

CCSCCSCC
inactive: [8] 98 % of control | [9] 101 % of control | [10] 98 % of control | [11] 97 % of control | [12] 96 % of control | [13] 97 % of control

CC(=O)N=c1ccccn1O
inactive: dose: 100.0 mg/kg/injection, schedule: Q04DX002 (ip), vehicle: saline 96 % of control | dose: 200.0 mg/kg/injection, schedule: Q04DX002 (ip), vehicle: saline 105 % of control

CCOP(=O)(CCO)OCC
inactive: dose: 50.0 mg/kg/injection, schedule: Q01DX005 (ip), vehicle: saline 106 % of control | dose: 100.0 mg/kg/injection, schedule: Q01DX005 (ip), vehicle: saline 106 % of control | dose: 200.0 mg/kg/injection, schedule: Q01DX005 (ip), vehicle: saline 95 % of control | dose: 400.0 mg/kg/injection, schedule: Q01DX005 (ip), vehicle: saline 104 % of control

CCO/C(=C\C(=O)c1ccccc1)c1ccccc1
inactive: dose: 50.0 mg/kg/injection, schedule: Q01DX009 (ip), vehicle: saline sonified 92 % of control | dose: 100.0 mg/kg/injection, schedule: Q01DX009 (ip), vehicle: saline sonified 95 % of control | dose: 200.0 mg/kg/injection, schedule: Q01DX009 (ip), vehicle: saline sonified 94 % of control

O=C(Nc1ccc(Cl)cc1[N+](=O)[O-])N1CCN(c2ccccc2)CC1
inactive: dose: 44.0 mg/kg/injection, schedule: Q01DX009 (ip), vehicle: Klucel (hydroxypropylcellulose) (HPC) 101 % of control | dose: 66.0 mg/kg/injection, schedule: Q01DX009 (ip), vehicle: Klucel (hydroxypropylcellulose) (HPC) 97 % of control | [1] 101 % of control | dose: 150.0 mg/kg/injection, schedule: Q01DX009 (ip), vehicle: Klucel (hydroxypropylcellulose) (HPC) 95 % of control | [2] 96 % of control | dose: 400.0 mg/kg/injection, schedule: Q01DX009 (ip), vehicle: Klucel (hydroxypropylcellulose) (HPC) 101 % of control

Nc1ccc(I)c(Cl)c1Cl
inactive: dose: 100.0 mg/kg/injection, schedule: Q01DX009 (ip), vehicle: saline with Tween-80 110 % of control | dose: 200.0 mg/kg/injection, schedule: Q01DX009 (ip), vehicle: saline with Tween-80 108 % of control | dose: 400.0 mg/kg/injection, schedule: Q01DX009 (ip), vehicle: saline with Tween-80 102 % of control

CCOC(=O)C1=C(C)NC(C)=C(C(=O)OCC)C1c1ccnc2ccccc12
inactive: dose: 100.0 mg/kg/injection, schedule: Q01DX001 (ip), vehicle: steriod suspending solution 93 % of control | dose: 200.0 mg/kg/injection, schedule: Q01DX001 (ip), vehicle: steriod suspending solution 94 % of control | dose: 400.0 mg/kg/injection, schedule: Q01DX001 (ip), vehicle: steriod suspending solution 89 % of control

Cn1c(=O)cc(C=Nc2ccc(O)cc2)c2ccccc21
inactive: [6] 94 % of control | [7] 98 % of control

OC1CC2CC1C=C2c1ccccc1 (configuration not stated)
inactive: dose: 100.0 mg/kg/injection, schedule: Q04DX003 (ip), vehicle: saline with Tween-80 102 % of control | dose: 200.0 mg/kg/injection, schedule: Q04DX003 (ip), vehicle: saline with Tween-80 86 % of control | dose: 400.0 mg/kg/injection, schedule: Q04DX003 (ip), vehicle: saline with Tween-80 91 % of control

CC(CS(=O)(=O)O)N1CCOCC1 (configuration not stated)
inactive: [8] 95 % of control | [9] 100 % of control | [10] 98 % of control | [11] 101 % of control | [12] 102 % of control | [13] 97 % of control

CC(C)(C)C(=O)CC(=O)C(C)(C)C.CC(C)(C)C(=O)CC(=O)C(C)(C)C.[Cu]
inactive: dose: 75.0 mg/kg/injection, schedule: Q01DX001 (ip), vehicle: other 103 % of control | dose: 150.0 mg/kg/injection, schedule: Q01DX001 (ip), vehicle: other 94 % of control

OC1(C#CI)CCCCC1
inactive: [1] 100 % of control | [2] 96 % of control

S=C([S][Sn]([c]1ccccc1)([c]1ccccc1)[c]1ccccc1)N1CCOCC1
inactive: [3] 100 % of control | [4] 96 % of control | [5] 94 % of control
